Source: ChEMBL document CHEMBL1154043, “Synthesis and structure-activity relationship of a novel series of heterocyclic sulfonamide gamma-secretase inhibitors” (Bioorg Med Chem, 2009)
Active and inactive are the calls of the source. No cut-off for these calls is given here.

Experiments:
[1] = Inhibition of gamma-secretase-mediated mouse notch cleavage expressed in CHOK1 cells assessed as secreted alkaline phosphatase level after 48 hrs by chemiluminescence assay; type: cell-based; details: CHO-K1, 48 h
[2] = Selectivity ratio of EC50 for gamma-secretase-mediated mouse notch cleavage to EC50 for gamma-secretase-mediated amyloid beta40 production
[3] = Inhibition of gamma-secretase assessed as increase in beta-C-terminal fragment level after 24 hrs by double sandwich ELISA
[4] = Inhibition of gamma-secretase-mediated cleavage of human APP expressed in CHO cells assessed as reduction in amyloid beta40 production after 24 hrs by double sandwich ELISA; type: cell-based
[5] = Inhibition of gamma-secretase assessed as effect on APP level after 24 hrs by double sandwich ELISA
[6] = system: CHO; assay: Inhibition of gamma-secretase-mediated cleavage of human APP expressed in CHO cells assessed as reduction in amyloid beta42 production after 24 hrs by double sandwich ELISA; type: cell-based
[7] = biological target: Gamma-secretase (Homo sapiens) (UniProt Q96BI3+Q9NZ42+Q8WW43+P49768+Q92542+P49810); assay: Displacement of [3H](S)-5-chloro-N-(3-ethyl-1-hydroxypentan-2-yl)thiophene-2-sulfonamide from gamma secretase in human SH-SY5Y cells after 1 hr; type: cell-based

Row | SMILES | EC50 [1] [nM] | Selectivity ratio [2] | Activity [3] | EC50 [4] [nM] | Activity [5] | Activity [6] | Activity [7]
1 | CCC(CC)[C@H](NS(=O)(=O)c1ccc(Cl)s1)c1ccnn1Cc1ccc(OC)cc1 | 2650 | 24 | Active | 110 | Active | Active | 
2 | Cc1ccc(Cn2ncnc2C(NS(=O)(=O)c2ccc(Cl)s2)C(C)C)cc1 (configuration not stated) |  |  | Active | 2890 | Active | Active | 
3 | COc1ccc(Cn2nccc2C(NS(=O)(=O)c2ccc(Cl)s2)C(C)C)cc1 (configuration not stated) |  |  | Active | 410 | Active | Active | 
4 | CCC(CC)C(NS(=O)(=O)c1ccc(Cl)s1)c1ncnn1Cc1ccc(F)cc1 (configuration not stated) |  |  | Active | 480 | Active | Active | 
5 | CCC(CC)C(NS(=O)(=O)c1ccc(Cl)cc1)c1ccnn1Cc1ccc(OC)cc1 (configuration not stated) |  |  | Active | 1980 | Active | Active | 
6 | COc1ccc(Cn2nccc2C(C)NS(=O)(=O)c2ccc(Cl)s2)cc1 (configuration not stated) |  |  | Active | 1200 | Active | Active | 
7 | Cc1ccc(-n2nccc2C(NS(=O)(=O)c2ccc(Cl)s2)C(C)C)cc1 (configuration not stated) |  |  | Active | 420 | Active | Active | 
8 | COc1ccc(Cn2cccc2C(NS(=O)(=O)c2ccc(Cl)s2)C(C)C)cc1 (configuration not stated) |  |  | Active | 13300 | Active | Active | 
9 | C[C@H](NC(=O)[C@@H](O)c1cc(F)cc(F)c1)C(=O)N[C@@H]1C(=O)N(C)c2ccccc2-c2ccccc21 |  |  |  |  |  |  | Active
10 | CCC(CC)[C@@H](NS(=O)(=O)c1ccc(Cl)s1)c1ccnn1Cc1ccc(O)cc1 |  |  | Active | 8500 | Active | Active | 
11 | CCC(CC)C(NS(=O)(=O)c1ccc(Cl)s1)c1ccnn1-c1ccc(O)cc1 (configuration not stated) |  |  | Active | 630 | Active | Active | 
12 | CC(C)[C@H](NS(=O)(=O)c1ccc(Cl)s1)c1ccnn1-c1ccc(O)cc1 | 3260 | 6.9 | Active | 470 | Active | Active | 
13 | CC(C)C(NS(=O)(=O)c1ccc(Cl)s1)c1ccnn1-c1ccccc1 (configuration not stated) |  |  | Active | 1120 | Active | Active | 
14 | CCC(CC)C(NS(=O)(=O)c1ccc(Br)cc1)c1ccnn1Cc1ccc(OC)cc1 (configuration not stated) |  |  | Active | 2270 | Active | Active | 
15 | CCC(CC)C(NS(=O)(=O)c1ccc(Cl)c(Cl)c1)c1ccnn1-c1ccccc1 (configuration not stated) |  |  | Active | 25500 | Active | Active | 
16 | CCC(CC)C(NS(=O)(=O)c1cc(Cl)c(Cl)s1)c1ccnn1-c1ccccc1 (configuration not stated) |  |  | Active | 13400 | Active | Active | 
17 | Cc1ccc(-n2nccc2[C@@H](NS(=O)(=O)c2ccc(Cl)s2)C(C)C)cc1 | 12600 | 39 | Active | 320 | Active | Active | 
18 | CCC(CC)[C@@H](NS(=O)(=O)c1ccc(Cl)s1)c1ccnn1Cc1ccc(OC)cc1 |  |  | Active | > 15000 | Active | Active | 
19 | CCC(CC)C(c1ccnn1-c1ccccc1)N(C)S(=O)(=O)c1ccc(Br)s1 (configuration not stated) |  |  | Active | 65100 | Active | Active | 
20 | CCC(CC)C(NS(=O)(=O)c1ccc(Cl)s1)c1nccn1Cc1ccccc1 (configuration not stated) |  |  | Active | 19400 | Active | Active | 
21 | CCC(CC)C(NS(=O)(=O)c1ccc(Br)s1)c1ccnn1-c1ccccc1 (configuration not stated) |  |  | Active | 1530 | Active | Active | 
22 | C[C@H](NC(=O)Cc1cc(F)cc(F)c1)C(=O)N[C@H](C(=O)OC(C)(C)C)c1ccccc1 |  |  |  |  |  |  | Active
23 | CCC(CC)[C@H](NS(=O)(=O)c1ccc(Cl)s1)c1ccnn1-c1ccc(OC)cc1 | 3970 | 4 | Active | 990 | Active | Active | 
24 | CCC(CC)C(c1ccnn1-c1ccccc1)N(C)S(=O)(=O)c1ccc(Cl)s1 (configuration not stated) |  |  | Active | 70200 | Active | Active | 
25 | CCC(CC)C(NS(=O)(=O)c1ccc(Cl)s1)c1ccn[nH]1 (configuration not stated) |  |  | Active | 19500 | Active | Active | 

Row | SMILES | EC50 [1] [nM] | Selectivity ratio [2] | Activity [3] | EC50 [4] [nM] | Activity [5] | Activity [6] | Activity [7]
26 | CCC(CC)C(NS(=O)(=O)c1ccc(Cl)s1)c1ccnn1-c1ccc(OC)cc1 (configuration not stated) |  |  | Active | 1560 | Active | Active | 
27 | CCC(CC)C(NS(=O)(=O)c1ccc(Cl)s1)c1ncnn1Cc1ccc(C)cc1 (configuration not stated) |  |  | Active | 880 | Active | Active | 
28 | CCC(CC)C(NS(=O)(=O)c1ccc(Cl)s1)c1ncnn1Cc1ccccc1 (configuration not stated) |  |  | Active | 1010 | Active | Active | 
29 | CCC(CC)C(NS(=O)(=O)c1ccc(Cl)s1)c1ccnn1S(=O)(=O)c1ccc(C)cc1 (configuration not stated) |  |  | Active | 1680 | Active | Active | 
30 | CCC(CC)C(NC(=O)c1ccc(Cl)cc1)c1ccnn1Cc1ccc(OC)cc1 (configuration not stated) |  |  | Active | 42400 | Active | Active | 
31 | CC(C)[C@@H](NS(=O)(=O)c1ccc(Cl)s1)c1ccnn1-c1ccc(F)cc1 |  |  | Active | > 15000 | Active | Active | 
32 | CC(C)C(NS(=O)(=O)c1ccc(Cl)s1)c1ccnn1-c1ccc(F)cc1 (configuration not stated) |  |  | Active | 2760 | Active | Active | 
33 | CCC(CC)C(NS(=O)(=O)c1ccc(Cl)cc1)c1ccnn1-c1ccccc1 (configuration not stated) |  |  | Active | 23000 | Active | Active | 
34 | CCC(CC)C(NS(=O)(=O)c1ccc(Cl)s1)c1ccnn1Cc1ccc(O)cc1 (configuration not stated) |  |  | Active | 140 | Active | Active | 
35 | CC(C)[C@H](NS(=O)(=O)c1ccc(Cl)s1)c1ccnn1-c1ccc(F)cc1 |  |  | Active | 1010 | Active | Active | 
36 | COc1ccc(-n2nccc2[C@@H](NS(=O)(=O)c2ccc(Cl)s2)C(C)C)cc1 | 6120 | 11 | Active | 550 | Active | Active | 
37 | CCC(CC)C(NS(=O)(=O)c1ccc(Cl)s1)c1ccnn1Cc1ccc(OC)cc1 (configuration not stated) |  |  | Active | 130 | Active | Active | 
38 | CCC(CC)C(NS(=O)(=O)c1ccc(Cl)s1)c1ccnn1-c1ccccc1 (configuration not stated) |  |  | Active | 1620 | Active | Active | 
39 | CCCCn1nccc1C(NS(=O)(=O)c1ccc(Cl)s1)C(CC)CC (configuration not stated) |  |  | Active | 1000 | Active | Active | 
40 | Cc1ccc(-n2nccc2[C@H](NS(=O)(=O)c2ccc(Cl)s2)C(C)C)cc1 |  |  | Active | > 15000 | Active | Active | 
41 | CCC(CC)C(NS(=O)(=O)c1ccc(Cl)s1)c1nccn1Cc1ccc(OC)cc1 (configuration not stated) |  |  | Active | 50600 | Active | Active | 
42 | CCC(CC)C(NS(=O)(=O)c1ccc(Cl)s1)c1ccnn1-c1ccc(C(F)(F)F)cc1 (configuration not stated) |  |  | Active | 2190 | Active | Active | 
43 | CCC(CC)C(NS(=O)(=O)c1ccc(Cl)s1)c1ncnn1Cc1ccc(OC(F)(F)F)cc1 (configuration not stated) |  |  | Active | 990 | Active | Active | 
44 | CC(C)[C@H](O)C(=O)N[C@@H](C)C(=O)N[C@@H]1C(=O)N(C)CCc2ccccc21 |  |  |  |  |  |  | Active
45 | CCCC(NS(=O)(=O)c1ccc(Cl)s1)c1ccnn1Cc1ccc(OC)cc1 (configuration not stated) |  |  | Active | 930 | Active | Active | 
46 | Cc1cccc(-n2nccc2C(NS(=O)(=O)c2ccc(Cl)s2)C(C)C)c1 (configuration not stated) |  |  | Active | 2530 | Active | Active | 
47 | CCC(CC)C(NS(=O)(=O)c1ccc(C#N)cc1)c1ccnn1-c1ccccc1 (configuration not stated) |  |  | Active | 85200 | Active | Active | 
48 | CC(C)C(NS(=O)(=O)c1ccc(Cl)s1)c1ncnn1Cc1ccccc1 (configuration not stated) |  |  | Active | 3360 | Active | Active | 
49 | CCC(CC)C(NS(=O)(=O)c1ccc(Cl)s1)c1ncnn1Cc1ccc(OC)cc1 (configuration not stated) |  |  | Active | 940 | Active | Active | 
